From article PMC11984392, “EphA2-targeted alpha-particle theranostics for enhancing PDAC treatment” (Theranostics, 2025)
*1 amine or outer side, *2 acyl side, *3 side chain or, on linkers, in order; H or OH if unused. Where a SMILES comes first, the peptide text is derived from it. Bridges are numbered along the chain shown (N, C = ends). [ ]: non-standard residue; d: D form. The star is where a group is joined. TATA = O=C(CC[*:1])N1CN(C(=O)CC[*:2])CN(C(=O)CC[*:3])C1; NOTA = O=C(O)CN1CCN(CC(=O)O)CCN(CC(=O)*)CC1; Hyp = O=C(O)[C@@H]1C[C@@H](O)CN1; hArg = N=C(N)NCCCC[C@H](N)C(=O)O; PEG2 = NCCOCCOCCC(=O)O; Sar = CNCC(=O)O

Assays:
Test in all cases: In vitro binding assay with Ga-68 radiotracer
Type in all cases: cell-based, human
[1] = tested on: Hs766T cells; conditions: 1 µCi, 60 min, 4 °C, mean ± SD (n = 3-4)
Protocol: (§1) In vitro binding assays were performed to determine the binding of [^68Ga]AJ201 and [^68Ga]AJ210 to Jurkat and PDAC cell lines. Approximately 1 μCi of radiotracer was incubated with cells in 100 μL culture media for 60 min at 4 °C. After incubation, cells were washed three times with ice cold PBS and counted on an automated gamma counter (1282 Compugamma CS, Pharmacia/LKBNuclear, Inc., Gaithersburg, MD). […] For kinetic study, 8×10^6 Panc1 cells/vial were incubated with approximately 8 μCi/vial of [^68Ga]AJ201 in culture media in triplicates at 37 °C and 4 °C in separate tubes. 1×10^6 cells were aliquoted at predetermined timepoints (5, 15, 30, 60 min). Excess radioactivity was removed by washing three times with PBS. Activity in cell pellets were measured on an automated gamma counter.

[2] = tested on: Su8686 cells; conditions: 1 µCi, 60 min, 4 °C, mean ± SD (n = 3-4)
Protocol: as §1

[3] = tested on: AsPC1 cells; conditions: 1 µCi, 60 min, 4 °C, mean ± SD (n = 3-4)
Protocol: as §1

[4] = tested on: Panc1005 cells; conditions: 1 µCi, 60 min, 4 °C, mean ± SD (n = 3-4)
Protocol: as §1

[5] = tested on: CFPAC cells; conditions: 1 µCi, 60 min, 4 °C, mean ± SD (n = 3-4)
Protocol: as §1

[6] = tested on: Jurkat cells; conditions: Jurkat (negative control cells); 1 µCi, 60 min, 4 °C; mean ± SD (n = 3-4)
Protocol: as §1

[7] = tested on: BxPC3 cells; conditions: 1 µCi, 60 min, 4 °C, mean ± SD (n = 3-4)
Protocol: as §1

[8] = tested on: Panc1 cells
Protocol: as §1

CC(C)C[C@@H]1NC(=O)[C@@H]2CSCCC(=O)N3CN(CN(C3)C(=O)CCSC[C@H](NC(=O)[C@H](CC(=O)O)NC(=O)[C@H](CCCCNC(=N)N)NC(=O)[C@H](C)NC(=O)CNC(=O)CN(C)C(=O)CN(C)C(=O)CN(C)C(=O)[C@H](CCCNC(=N)N)NC(=O)CNC(=O)CCOCCOCCNC(=O)CN3CCN(CC(=O)O)CCN(CC(=O)O)CC3)C(=O)N3C[C@H](O)C[C@H]3C(=O)N[C@@H](CC(C)C)C(=O)N[C@@H](C(C)C)C(=O)N[C@@H](CC(N)=O)C(=O)N3CCC[C@H]3C(=O)N[C@@H](CC(C)C)C(=O)N2)C(=O)CCSC[C@@H](C(N)=O)NC(=O)[C@H](CCCCNC(=N)N)NC(=O)[C@H](Cc2c[nH]c3ccccc23)NC(=O)[C@@H](CC(=O)O)NC(=O)[C@@H]2CCCN2C(=O)[C@H](Cc2c[nH]cn2)NC1=O [[^68Ga]AJ201, metal not drawn] ({NOTA-PEG2}-GR[Sar][Sar][Sar]GA[hArg]DC[Hyp]LVNPLCLHP[dD]W[hArg]C-NH2; linker 10-17-24 via TATA)
Cell binding (percent incubated activity) [1]: 7.2 ± 0.6 %IA
Cell binding (percent incubated activity) [2]: 22.0 ± 1.1 %IA
Cell binding (percent incubated activity) [3]: 9.9 ± 1.2 %IA
Cell binding (percent incubated activity) [4]: 4.7 ± 0.1 %IA
Cell binding (percent incubated activity) [5]: 1.7 ± 0.3 %IA
Cell binding (percent incubated activity) [6]: 0.8 ± 0.1 %IA
Cell binding (percent incubated activity) [7]: 5.9 ± 0.2 %IA
Time to uptake stabilization in Panc1 cells ([8]; 4 °C, time points 5, 15, 30, 60 min): around 30 min
Time to uptake equilibrium in Panc1 cells ([8]; 37 °C, time points 5, 15, 30, 60 min): ≤ 15 min
Reduction of binding to Panc1 cells by blocking ([8]; in the presence of non-radioactive AJ201 (2 µM), P<0.0001): more than 95%
